According to patent US5349127A, “Expression of herbicide metabolizing cytochromes P450” (priority 1992, dated 1994):

Assays:
[1] = tested on: S. lividans C37; assay: Metabolism of 10001 in growing culture, HPLC of supernatant (Example 4); format: in vitro ADME, Streptomyces lividans; conditions: 0.12 mg/ml 10001 in culture
Experimental: Herbicides and their metabolites are measured by HPLC as described by Romesser et al., BBRC 140: 650-659 (1986), herein incorporated by reference, except that 0.1% H3 PO4 is used in both solvents. Chromatographic identity and quantitation of the herbicides and their resulting metabolites is determined by comparing them chromatographically with authentic standard compounds. Identity of the resulting metabolites is also confirmed by UV spectroscopy.
Separate cultures (50 ml) inoculated with S. lividans C37, S. lividans transformed with pCAO400 or S. lividans transformed with pCAO401 in sporulation broth containing 0.12 mg/ml of 10001 were grown with shaking at 30° C. Aliquots (1.5 ml) of each culture were removed at 24, 32, 48 and 56 hours after inoculation and the supernatant of each aliquot was analyzed by HPLC for its concentration of 10001 and its metabolites 10002 or 10003.

[2] = tested on: Tomato seedlings (Lysopersicon esculentum cv. Pixie); assay: Tomato transplants in sulfonylurea-treated soil after dipping in water, YEME or S. lividans culture (Example 13); format: in vivo; conditions: for Mean value of visual ratings / Visual Injury Ratings of individual transplanted tomatoes: 19 DAT
Experimental: A 2 liter culture of S. lividans pCAO200SU1-FeS-B#9 was grown in YEME medium at 30° C. until the culture was in […] log phase of growth and the absorbance in a spectrophotometer at a wavelength of 600 nm was between about 1.0 and 1.3. Tomato seedlings (Lysopersicon esculentum cv. "Pixie") were seeded directly into soiless media, Oasis Wedges® (Smithers-Oasis, Kent, Ohio), fertilized with 500 ppm Peters'® fertilizer (20:19:18); and 300 ppm of iron was added weekly. As the tomato plants develop, roots ramify through the Oasis Wedges®. The tomato plants were transplanted to pots when they were 4 inches tail as follows.
Five inch standard round pots (without holes) were filled with Sassafras sandy loam (pH 6.7, 0.8% OM) and an oasis cube. The contents of the each pot was sprayed, prior to transplanting the tomato plants, with either 10001, in 25% dry flowable composition (25 DF) or 10010, 75 DF at rates of 16, 32, 64, 125 or 250 grams of active ingredient per hectare (g ai/ha). The Oasis cube was then removed and replaced by another containing a transplant tomato plant dipped in either water (treatment A), YEME medium (treatment B)-or the culture of S. lividans pCAO200SU1-FeS-B#9 described above (treatment C). Six transplant tomato plants received each of the three treatments, and five transplant tomato plants (to serve as controls) received no treatment. The resulting tomato plants were grown in a greenhouse for 19 days and watered twice daily, after which they were evaluated for visual injury (100=complete kill, other numbers=percentage of injury relative to controls [subjectively determined], 0=no injury) with respect to the water dipped, no-herbicide control treatments. The plants were left in the greenhouse for one more week after which the fresh weights of the shoots of the plants were determined. The roots of the plants which received these treatments and controls were examined too.

[3] = tested on: Tomato seedlings (Lycopersicon esculentum cv. Pixie); assay: Tomato transplants in herbicide-treated soil after bacterial pretreatments (Example 18); format: in vivo; conditions: for Shoot Fresh Weight (mean of five plants): 22 days
Experimental: One liter cultures of S. griseolus ATCC 11796, S. lividans pCAO200, S. lividans pCAO200-#9-SU1-FeS-B or S. lividans pCAO200-#12-SU1 were grown in YEME medium (sporulation broth for the S. griseolus culture) at 30° C. until the cultures were in late log phase of growth and the absorbance of each culture in a spectrophotometer at a wavelength of 600 nm was between 1.0 and 1.3. Tomato seedlings (Lycopersicon esculentum cv. "Pixie") were seeded directly into soiless media, Oasis Wedges® (Smithers-Oasis, Kent, Ohio), fertilized with 500 ppm Peter's® fertilizer (20:19:18); and 300 ppm of iron was added weekly. As the tomato plants develop, roots ramify through the Oasis Wedges®. The tomato plants were transplanted to pots when they were 4 inches tall as follows.
Five inch standard round pots (without holes) were filled with Sassafras sandy loam (ph 6.7, 0.8% OM) and a single Oasis cube and then treated preemergence with either Classic® (10001) 25 DF (16, 32, 64, 125 and 250 grams active ingredient/hectare [g ai/ha]) or Oust® (10010) 75 DF at rates of 4, 8, 16, 32 and 64 g ai/ha), both herbicides available from E. I. du Pont de Nemours and Company, Wilmington, Del. The oasis cube was then removed and replaced by a transplant tomato dipped in either the cultures described above of S. griseolus ATCC 11796 (treatment A), S. lividans pCAO200 (treatment B), S. lividans pCAO200-#9-SU1-FeS-B (treatment C), S. lividans pCAO200-#12-SU1 (treatment D) or into water (treatment E). Five transplants were tested for each treatment at each dosage rate. The pots were placed on a greenhouse bench for 22 days and watered twice daily, after which shoot fresh weights of treatments were determined. Roots of these treatments and controls were examined too. Plants, soil and pots treated with bacterial cultures were double bagged and disposed by incineration.

[4] = 32 g ai/ha, Treatment A (water), scale 0-100
[5] = 64 g ai/ha, Treatment A (water), scale 0-100
[6] = 64 g ai/ha, Treatment C (pCAO200SU1-FeS-B#9), scale 0-100
[7] = 125 g ai/ha, Treatment A (water), scale 0-100

COc1cc(Cl)nc(NC(=O)NS(=O)(=O)c2ccccc2C(=O)O)n1 [compound 10003, N-[(4-chloro-6-methoxy-pyrimidin-2-yol)aminocarbonyl]-2-carboxybenzenesulfonamide]
concentration in supernatant ([1]; 0 h): 0 nM | concentration in supernatant ([1]; 24 h): 0 nM | concentration in supernatant ([1]; 32 h): 0 nM | concentration in supernatant ([1]; 48 h): 3000 nM | concentration in supernatant ([1]; 56 h): 3000 nM

COC(=O)c1ccccc1S(=O)(=O)NC(=O)Nc1nc(C)cc(C)n1 [compound 10010, N-[(4,6-dimethylpyrimidin-2-yl)aminocarbonyl]-2-methoxycarbonylbenzenesulfonamide]
Mean Shoot Fresh Weights ([2]; 16 g ai/ha, Treatment A (water)): 1.28 grams | Mean value of visual ratings ([2]; 16 g ai/ha, Treatment A (water), scale 0-100): 70.0 | Mean Shoot Fresh Weights ([2]; 16 g ai/ha, Treatment B (YEME)): 1.58 grams | Mean value of visual ratings ([2]; 16 g ai/ha, Treatment B (YEME), scale 0-100): 63.3 | Mean Shoot Fresh Weights ([2]; 16 g ai/ha, Treatment C (pCAO200SU1-FeS-B#9)): 2.10 grams | Mean value of visual ratings ([2]; 16 g ai/ha, Treatment C (pCAO200SU1-FeS-B#9), scale 0-100): 60 | Mean Shoot Fresh Weights ([2]; 32 g ai/ha, Treatment A (water)): 0.65 grams | Mean value of visual ratings [2, 4]: 93.3 | Visual Injury Ratings of individual transplanted tomatoes [2, 4]: 100,100,100 | Mean Shoot Fresh Weights ([2]; 32 g ai/ha, Treatment B (YEME)): 1.60 grams | Mean value of visual ratings ([2]; 32 g ai/ha, Treatment B (YEME), scale 0-100): 66.7 | Mean Shoot Fresh Weights ([2]; 32 g ai/ha, Treatment C (pCAO200SU1-FeS-B#9)): 1.79 grams | Mean value of visual ratings ([2]; 32 g ai/ha, Treatment C (pCAO200SU1-FeS-B#9), scale 0-100): 56.7 | Mean value of visual ratings [2, 5]: 90.0 | Visual Injury Ratings of individual transplanted tomatoes [2, 5]: 80,100,100 | Mean value of visual ratings ([2]; 64 g ai/ha, Treatment B (YEME), scale 0-100): 83.3 | Mean value of visual ratings [2, 6]: 86.7 | Visual Injury Ratings of individual transplanted tomatoes [2, 6]: 60,100,100 | Mean value of visual ratings [2, 7]: 91.7 | Visual Injury Ratings of individual transplanted tomatoes [2, 7]: 90,100,100 | Mean value of visual ratings ([2]; 125 g ai/ha, Treatment B (YEME), scale 0-100): 83.3 | Mean value of visual ratings ([2]; 125 g ai/ha, Treatment C (pCAO200SU1-FeS-B#9), scale 0-100): 76.7 | Visual Injury Ratings of individual transplanted tomatoes ([2]; 250 g ai/ha, Treatment A (water), scale 0-100): 90,100,100 | Mean value of visual ratings ([2]; 250 g ai/ha, Treatment A (water), scale 0-100, 100 = complete kill): 95.0 | Mean value of visual ratings ([2]; 250 g ai/ha, Treatment B (YEME), scale 0-100): 86.7 | Mean value of visual ratings ([2]; 250 g ai/ha, Treatment C (pCAO200SU1-FeS-B#9), scale 0-100): 85 | visual injury across treatments A, B, C ([2]; all rates): injured to similar extents regardless of the treatment they received | Shoot Fresh Weight (mean of five plants) ([3]; 4 g ai/ha, Pretreatment A (Streptomyces griseolus ATCC11796)): 1.16 grams | Shoot Fresh Weight (mean of five plants) ([3]; 4 g ai/ha, Pretreatment B (Streptomyces lividans pCAO200)): 0.73 grams | Shoot Fresh Weight (mean of five plants) ([3]; 4 g ai/ha, Pretreatment C (S. lividans pCAO200#9SU1-FeS-B)): 0.88 grams | Shoot Fresh Weight (mean of five plants) ([3]; 4 g ai/ha, Pretreatment D (S. lividans pCAO200#12SU1)): 0.88 grams | Shoot Fresh Weight (mean of five plants) ([3]; 4 g ai/ha, Pretreatment E (water)): 2.00 grams | Shoot Fresh Weight (mean of five plants) ([3]; 8 g ai/ha, Pretreatment A (Streptomyces griseolus ATCC11796)): 0.58 grams | Shoot Fresh Weight (mean of five plants) ([3]; 8 g ai/ha, Pretreatment B (Streptomyces lividans pCAO200)): 0.69 grams | Shoot Fresh Weight (mean of five plants) ([3]; 8 g ai/ha, Pretreatment C (S. lividans pCAO200#9SU1-FeS-B)): 1.02 grams | Shoot Fresh Weight (mean of five plants) ([3]; 8 g ai/ha, Pretreatment D (S. lividans pCAO200#12SU1)): 0.75 grams | Shoot Fresh Weight (mean of five plants) ([3]; 8 g ai/ha, Pretreatment E (water)): 0.65 grams | Shoot Fresh Weight (mean of five plants) ([3]; 16 g ai/ha, Pretreatment A (Streptomyces griseolus ATCC11796)): 0.32 grams | Shoot Fresh Weight (mean of five plants) ([3]; 16 g ai/ha, Pretreatment B (Streptomyces lividans pCAO200)): 0.65 grams | Shoot Fresh Weight (mean of five plants) ([3]; 16 g ai/ha, Pretreatment C (S. lividans pCAO200#9SU1-FeS-B)): 0.98 grams | Shoot Fresh Weight (mean of five plants) ([3]; 16 g ai/ha, Pretreatment D (S. lividans pCAO200#12SU1)): 0.56 grams | Shoot Fresh Weight (mean of five plants) ([3]; 16 g ai/ha, Pretreatment E (water)): 0.39 grams | Shoot fresh weight in treatment C versus the other treatments ([3]; 32, 64 and 125 g ai/ha of 10001 or 16 and 32 g ai/ha of 10010): 2-3 times greater | Shoot Fresh Weight (mean of five plants) ([3]; 32 g ai/ha, Pretreatment A (Streptomyces griseolus ATCC11796)): 0.33 grams | Shoot Fresh Weight (mean of five plants) ([3]; 32 g ai/ha, Pretreatment B (Streptomyces lividans pCAO200)): 0.42 grams | Shoot Fresh Weight (mean of five plants) ([3]; 32 g ai/ha, Pretreatment C (S. lividans pCAO200#9SU1-FeS-B)): 1.01 grams | Shoot Fresh Weight (mean of five plants) ([3]; 32 g ai/ha, Pretreatment D (S. lividans pCAO200#12SU1)): 0.62 grams | Shoot Fresh Weight (mean of five plants) ([3]; 32 g ai/ha, Pretreatment E (water)): 0.28 grams | Shoot Fresh Weight (mean of five plants) ([3]; 64 g ai/ha, Pretreatment A (Streptomyces griseolus ATCC11796)): 0.30 grams | Shoot Fresh Weight (mean of five plants) ([3]; 64 g ai/ha, Pretreatment B (Streptomyces lividans pCAO200)): 0.39 grams | Shoot Fresh Weight (mean of five plants) ([3]; 64 g ai/ha, Pretreatment C (S. lividans pCAO200#9SU1-FeS-B)): 0.46 grams | Shoot Fresh Weight (mean of five plants) ([3]; 64 g ai/ha, Pretreatment D (S. lividans pCAO200#12SU1)): 0.29 grams | Shoot Fresh Weight (mean of five plants) ([3]; 64 g ai/ha, Pretreatment E (water)): 0.34 grams
